Results on twelve compounds are retold here after PubChem BioAssay (NCI).

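Five concentrations, 48 hours, 96-well plates. GI50: concentration for 50% inhibition of growth. TGI marks complete inhibition of growth.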 Some results are limits rather than exact numbers.

Test systems include NCI-H23 lung; SN12C renal; SNB-75 CNS; T-47D breast; NCI/ADR-RES ovarian; A498 renal; KM12 colon; SK-MEL-5 melanoma; NCI-H226 lung; IGROV1 ovarian.
Experiment in all cases: NCI anticancer screen, dose series, 48 h

In the case of `CSc1nc2ccccc2c(=O)n1/N=C1\C(=O)N(CN2CCOCC2)c2ccc(Cl)cc21`, the TGI in the assay on NCI-H23 lung, in the assay with SN12C renal, with SNB-75 CNS, with T-47D breast, with NCI/ADR-RES ovarian and in the assay on A498 renal was above 100 µM throughout. Further, the TGI in the assay with KM12 colon, with SK-MEL-5 melanoma, in the assay with NCI-H226 lung and in the assay on IGROV1 ovarian was above 100 µM throughout.
As to `CC/C(Cl)=N\OC(=O)Nc1ccc(OC)cc1`, the TGI in the assay on NCI-H23 lung is 38.6 µM; with SN12C renal it was 11.4 µM; in the assay with SNB-75 CNS it was 19.3 µM; with T-47D breast, 13.8 µM; in the assay with NCI/ADR-RES ovarian, 15 µM; with A498 renal it was 37 µM. Besides, the TGI with KM12 colon was determined as 31.6 µM; in the assay on SK-MEL-5 melanoma, 14.6 µM; with NCI-H226 lung, 28.3 µM; with IGROV1 ovarian, 17.5 µM.
With `O=C1COC(c2ccccc2O)=NN1CCCN1CCCC1`, the TGI in the assay with NCI-H23 lung, with SN12C renal, in the assay on SNB-75 CNS, in the assay on T-47D breast, in the assay on NCI/ADR-RES ovarian and in the assay with A498 renal was above 100 µM throughout. The TGI in the assay with KM12 colon, in the assay with SK-MEL-5 melanoma, in the assay with NCI-H226 lung and in the assay on IGROV1 ovarian was above 100 µM throughout.
Turning to `O=S(=O)(c1cc(Cl)ccc1Cl)N1CCN(S(=O)(=O)c2cc(Cl)ccc2Cl)CC1`, the TGI in the assay with NCI-H23 lung is 18.7 µM; in the assay with SN12C renal, above 100 µM; with SNB-75 CNS, above 100 µM; in the assay with T-47D breast it was above 100 µM; in the assay with NCI/ADR-RES ovarian it was above 100 µM; in the assay with A498 renal it was above 100 µM. Besides, the TGI in the assay with KM12 colon, with SK-MEL-5 melanoma, with NCI-H226 lung and with IGROV1 ovarian was above 100 µM each time.
`CC(C)(C)c1cc(C(O)(C(=O)O)C(=O)O)cc(C(C)(C)C)c1O`: the TGI in the assay with NCI-H23 lung, in the assay with SN12C renal, in the assay with SNB-75 CNS, in the assay with T-47D breast, with NCI/ADR-RES ovarian and in the assay with A498 renal was above 100 µM in each case. The TGI in the assay with KM12 colon, in the assay on SK-MEL-5 melanoma, in the assay with NCI-H226 lung and with IGROV1 ovarian was above 100 µM throughout.
With `CCN1CCN(C(=O)[C@]23CC[C@@H](C)[C@H](C)[C@@H]2C2=CC[C@@H]4[C@@]5(C)C/C(=C/c6cccnc6)C(=O)C(C)(C)[C@@H]5CC[C@@]4(C)[C@]2(C)CC3)CC1`, the GI50 in the assay on NCI-H23 lung was 2.13 µM; with SN12C renal, 1.61 µM; with SNB-75 CNS it was 1.57 µM; with T-47D breast, 2.79 µM; in the assay with NCI/ADR-RES ovarian it was 1.59 µM; in the assay with A498 renal it was 1.9 µM. In addition, the GI50 in the assay on KM12 colon is 1.75 µM; in the assay with SK-MEL-5 melanoma, 1.75 µM; in the assay on NCI-H226 lung it was 1.89 µM; in the assay on IGROV1 ovarian, 1.89 µM. Further, the TGI in the assay with NCI-H23 lung was 5.91 µM; in the assay on SN12C renal, 3.01 µM; with SNB-75 CNS, 8.91 µM; with T-47D breast it was 13.4 µM; in the assay with NCI/ADR-RES ovarian it was 3.32 µM; in the assay on A498 renal, 4.05 µM. The TGI turned out to be 3.56 µM in the assay with KM12 colon, 3.14 µM with SK-MEL-5 melanoma, 4.07 µM in the assay with NCI-H226 lung and 3.87 µM in the assay with IGROV1 ovarian.
As to `Brc1ccc2c(-c3nc(-c4c[nH]c5ccccc45)cs3)c[nH]c2c1`, the TGI in the assay on NCI-H23 lung was above 88 µM; with SN12C renal it was above 100 µM; with SNB-75 CNS, above 100 µM; in the assay with T-47D breast, above 100 µM; in the assay on NCI/ADR-RES ovarian, above 100 µM; in the assay on A498 renal it was above 92.3 µM. Also, the TGI in the assay on KM12 colon was above 47.3 µM; in the assay on SK-MEL-5 melanoma, 57.1 µM; in the assay on NCI-H226 lung, above 100 µM; in the assay with IGROV1 ovarian it was above 100 µM.
For `Oc1ccc2c(c1)-c1c(c3cc(O)ccc3n1CCN1CCOCC1)CC2`, the TGI in the assay with NCI-H23 lung was 73.5 µM; in the assay with SN12C renal, above 100 µM; in the assay on SNB-75 CNS, 58.5 µM; in the assay with T-47D breast, above 100 µM; in the assay with NCI/ADR-RES ovarian, 73.9 µM; in the assay on A498 renal it was 60 µM. Moreover, the TGI was above 100 µM in the assay with KM12 colon, 30.6 µM in the assay with SK-MEL-5 melanoma, 41.4 µM in the assay on NCI-H226 lung and above 100 µM with IGROV1 ovarian.
Take `COC(=O)c1c(OC(C)=O)ccc2c1c1c(OC(C)=O)c3ccccc3c(OC(C)=O)c1n2Cc1cc(OC)cc(OC)c1`: the TGI in the assay on NCI-H23 lung was above 100 µM; in the assay on SN12C renal, above 100 µM; with SNB-75 CNS, 54.3 µM; in the assay with T-47D breast, 48.9 µM; in the assay on NCI/ADR-RES ovarian, above 100 µM; with A498 renal, 89.8 µM. In addition, the TGI in the assay on KM12 colon was 8.13 µM; in the assay on SK-MEL-5 melanoma, 24.3 µM; in the assay with NCI-H226 lung, above 100 µM; in the assay on IGROV1 ovarian, above 100 µM.
For the compound `COCn1c(C)c(C)c2c(=O)oc(=O)[nH]c21`, the TGI in the assay with NCI-H23 lung, in the assay with SN12C renal, with SNB-75 CNS, in the assay with T-47D breast, in the assay on NCI/ADR-RES ovarian and in the assay on A498 renal was above 100 µM each time. Also, the TGI in the assay with KM12 colon, with SK-MEL-5 melanoma, in the assay with NCI-H226 lung and in the assay with IGROV1 ovarian was above 100 µM each time.
For `COc1cc(C2c3cc4c(cc3C(O)C3CCC(=O)N23)OCO4)cc(OC)c1OC` (stereo not given), the TGI in the assay with NCI-H23 lung, in the assay with SN12C renal, in the assay with SNB-75 CNS, in the assay on T-47D breast, in the assay on NCI/ADR-RES ovarian and with A498 renal was above 100 µM in each case. Further, the TGI with KM12 colon is above 100 µM; with SK-MEL-5 melanoma, above 100 µM; in the assay on NCI-H226 lung it was 79.3 µM; with IGROV1 ovarian, above 100 µM.
Take `Oc1nc(N/N=C/c2c[nH]c3ccccc23)[nH]c1/C=C1\C=Nc2ccccc21`: the TGI is 38.5 µM in the assay with NCI-H23 lung; above 100 µM in the assay with SN12C renal; 78 µM in the assay with SNB-75 CNS; 36.5 µM in the assay with T-47D breast; 84.5 µM in the assay with NCI/ADR-RES ovarian; 27.8 µM in the assay with A498 renal. The TGI in the assay on KM12 colon came out at 44.8 µM; in the assay on SK-MEL-5 melanoma, 38.1 µM; in the assay with NCI-H226 lung, 34.4 µM; with IGROV1 ovarian, 41.2 µM.
